In ChEMBL document CHEMBL1136997, “An atom economic synthesis and antitubercular evaluation of novel spiro-cyclohexanones” (2009):
Converted amounts (≈) assume the structure as drawn.

Test system: Mycobacterium tuberculosis
Assay: Antimycobacterial activity against log phase culture of Mycobacterium tuberculosis H37Rv by agar dilution method
Format: functional

O=C1c2cccc3cccc(c23)[C@]12N[C@@H](c1ccccc1)[C@H](c1ccc(Cl)cc1)[C@]21CCC/C(=C\c2ccc(Cl)cc2)C1=O
MIC: 6.25 µg/mL (≈ 10.2 µM)

O=C1c2cccc3cccc(c23)[C@]12N1CCC[C@H]1[C@H](c1ccc(Cl)cc1)[C@]21CCC/C(=C\c2ccc(Cl)cc2)C1=O
MIC: 1.78 µg/mL (≈ 3.08 µM)

Cc1ccc(/C=C2\CCC[C@@]3(C2=O)[C@@H](c2ccc(C)cc2)[C@H](c2ccccc2)N[C@@]32C(=O)c3cccc4cccc2c34)cc1
MIC: 6.25 µg/mL (≈ 10.9 µM)

Cc1ccc(/C=C2\CCC[C@@]3(C2=O)[C@@H](c2ccc(C)cc2)[C@@H]2CCCN2[C@@]32C(=O)c3cccc4cccc2c34)cc1
MIC: 6.25 µg/mL (≈ 11.6 µM)

COc1ccc(/C=C2\CCC[C@@]3(C2=O)[C@@H](c2ccc(OC)cc2)CN(C)[C@@]32C(=O)c3cccc4cccc2c34)cc1
MIC: 25 µg/mL (≈ 46 µM)

O=C1c2cccc3cccc(c23)[C@]12N1CCC[C@H]1[C@H](c1ccccc1Cl)[C@]21CCC/C(=C\c2ccccc2Cl)C1=O
MIC: 3.13 µg/mL (≈ 5.41 µM)

O=C1c2cccc3cccc(c23)[C@]12N[C@@H](c1ccccc1)[C@H](c1ccccc1Cl)[C@]21CCC/C(=C\c2ccccc2Cl)C1=O
MIC: 0.78 µg/mL (≈ 1.27 µM)

O=C1c2cccc3cccc(c23)[C@]12N1CSC[C@H]1[C@H](c1ccc(F)cc1)[C@]21CCC/C(=C\c2ccc(F)cc2)C1=O
MIC: 1.76 µg/mL (≈ 3.12 µM)

CN1C[C@H](c2ccc(Cl)cc2)[C@]2(CCC/C(=C\c3ccc(Cl)cc3)C2=O)[C@]12C(=O)c1cccc3cccc2c13
MIC: 12.5 µg/mL (≈ 22.6 µM)

CN1C[C@H](c2ccccc2)[C@]2(CCC/C(=C\c3ccccc3)C2=O)[C@]12C(=O)c1cccc3cccc2c13
MIC: 12.5 µg/mL (≈ 25.8 µM)

O=C1c2cccc3cccc(c23)[C@]12N1CSC[C@H]1[C@H](c1ccc(Cl)cc1)[C@]21CCC/C(=C\c2ccc(Cl)cc2)C1=O
MIC: 6.25 µg/mL (≈ 10.5 µM)

O=C1c2cccc3cccc(c23)[C@]12N[C@@H](c1ccccc1)[C@H](c1ccc(F)cc1)[C@]21CCC/C(=C\c2ccc(F)cc2)C1=O
MIC: 6.25 µg/mL (≈ 10.7 µM)

Cc1ccccc1/C=C1\CCC[C@@]2(C1=O)[C@@H](c1ccccc1C)[C@@H]1CSCN1[C@@]21C(=O)c2cccc3cccc1c23
MIC: 0.78 µg/mL (≈ 1.4 µM)

Cc1ccc(/C=C2\CCC[C@@]3(C2=O)[C@@H](c2ccc(C)cc2)CN(C)[C@@]32C(=O)c3cccc4cccc2c34)cc1
MIC: 25 µg/mL (≈ 48.9 µM)

Cc1ccccc1/C=C1\CCC[C@@]2(C1=O)[C@@H](c1ccccc1C)CN(C)[C@@]21C(=O)c2cccc3cccc1c23
MIC: 12.5 µg/mL (≈ 24.4 µM)

CN1C[C@H](c2cccc(F)c2)[C@]2(CCC/C(=C\c3cccc(F)c3)C2=O)[C@]12C(=O)c1cccc3cccc2c13
MIC: 12.5 µg/mL (≈ 24.1 µM)

O=C1c2cccc3cccc(c23)[C@]12N[C@@H](c1ccccc1)[C@H](c1ccccc1)[C@]21CCC/C(=C\c2ccccc2)C1=O
MIC: 3.13 µg/mL (≈ 5.74 µM)

O=C1c2cccc3cccc(c23)[C@]12N[C@@H](c1ccccc1)[C@H](c1ccc(Cl)cc1Cl)[C@]21CCC/C(=C\c2ccc(Cl)cc2Cl)C1=O
MIC: 0.4 µg/mL (≈ 0.585 µM)

O=C1c2cccc3cccc(c23)[C@]12N1CSC[C@H]1[C@H](c1ccccc1Cl)[C@]21CCC/C(=C\c2ccccc2Cl)C1=O
MIC: 0.78 µg/mL (≈ 1.31 µM)

O=C1c2cccc3cccc(c23)[C@]12N1CCC[C@H]1[C@H](c1ccc(F)cc1)[C@]21CCC/C(=C\c2ccc(F)cc2)C1=O
MIC: 1.78 µg/mL (≈ 3.26 µM)

CN1C[C@H](c2ccc(Cl)cc2Cl)[C@]2(CCC/C(=C\c3ccc(Cl)cc3Cl)C2=O)[C@]12C(=O)c1cccc3cccc2c13
MIC: 3.13 µg/mL (≈ 5.04 µM)

Cc1ccccc1/C=C1\CCC[C@@]2(C1=O)[C@@H](c1ccccc1C)[C@H](c1ccccc1)N[C@@]21C(=O)c2cccc3cccc1c23
MIC: 1.78 µg/mL (≈ 3.1 µM)

O=C1c2cccc3cccc(c23)[C@]12N1CSC[C@H]1[C@H](c1ccc(Cl)cc1Cl)[C@]21CCC/C(=C\c2ccc(Cl)cc2Cl)C1=O
MIC: 0.4 µg/mL (≈ 0.601 µM)

CN1C[C@H](c2cccc3ccccc23)[C@]2(CCC/C(=C\c3cccc4ccccc34)C2=O)[C@]12C(=O)c1cccc3cccc2c13
MIC: 6.25 µg/mL (≈ 10.7 µM)

Cc1ccc(/C=C2\CCC[C@@]3(C2=O)[C@@H](c2ccc(C)cc2)[C@@H]2CSCN2[C@@]32C(=O)c3cccc4cccc2c34)cc1
MIC: 6.25 µg/mL (≈ 11.2 µM)

O=C1c2cccc3cccc(c23)[C@]12N1CCC[C@H]1[C@H](c1ccccc1)[C@]21CCC/C(=C\c2ccccc2)C1=O
MIC: 12.5 µg/mL (≈ 24.5 µM)

O=C1c2cccc3cccc(c23)[C@]12N1CSC[C@H]1[C@H](c1ccccc1)[C@]21CCC/C(=C\c2ccccc2)C1=O
MIC: 6.25 µg/mL (≈ 11.8 µM)

CN1C[C@H](c2ccccc2Cl)[C@]2(CCC/C(=C\c3ccccc3Cl)C2=O)[C@]12C(=O)c1cccc3cccc2c13
MIC: 6.25 µg/mL (≈ 11.3 µM)
